Columns and labels:
CKIα = CKIα (Homo sapiens, UniProt P48729); assay: In vitro kinase assay, CKIα; type: biochemical; design: purchased Invitrogen PV3850
Description: (§1) The CKIδ, CKIα, CDK7, and ERK2 kinase assays were performed on 384-well plates (10 µl volume). The reaction mixture was as follows: for CKIδ, 2 ng/µl CKIδ (Millipore, 14-520), 50 µM peptide substrate RKKKAEpSVASLTSQCSYSS corresponding to human PER2 Lys659-Ser674 [47], and CKI buffer (40 mM Tris, 10 mM MgCl2, 0.5 mM DTT, 0.1 mg/ml BSA, pH 7.5); for CKIα, 1 ng/µl CKIα (Invitrogen, PV3850), 50 µM CKI peptide substrate (Anaspec, 60547-1), and CKI buffer; for CDK7, 5 ng/µl CDK7 (Millipore, 14-476), 100 µM Cdk7/9 peptide substrate (Millipore, 12-526), and CKI buffer; for ERK2, 1.5 ng/µl ERK2 (Millipore, 14-550), 0.8 µg/µl MBP (Millipore, 13-104), and ERK buffer (50 mM Tris, 10 mM MgCl2, 0.5 mM DTT, 1 mM EGTA, pH 7.5). Five hundred nl of compound was added to the mixture (final 5% DMSO), and the reaction was started by adding ATP (final 5 µM). After incubation at 30°C for 3h, 10 µl of Kinase-Glo Luminescent Kinase Assay reagent (Promega) was added, and the luminescence was detected to determine remaining ATP amount. […] IC50 value was obtained by using Prism software (GraphPad Software).

ERK2 = molecular target: T1, ERK2 (Homo sapiens, UniProt P28482); assay: In vitro kinase assay, ERK2; type: biochemical
T1 construct: purchased Millipore 14-550
T1 sequence (P28482 whole entry, species assumed): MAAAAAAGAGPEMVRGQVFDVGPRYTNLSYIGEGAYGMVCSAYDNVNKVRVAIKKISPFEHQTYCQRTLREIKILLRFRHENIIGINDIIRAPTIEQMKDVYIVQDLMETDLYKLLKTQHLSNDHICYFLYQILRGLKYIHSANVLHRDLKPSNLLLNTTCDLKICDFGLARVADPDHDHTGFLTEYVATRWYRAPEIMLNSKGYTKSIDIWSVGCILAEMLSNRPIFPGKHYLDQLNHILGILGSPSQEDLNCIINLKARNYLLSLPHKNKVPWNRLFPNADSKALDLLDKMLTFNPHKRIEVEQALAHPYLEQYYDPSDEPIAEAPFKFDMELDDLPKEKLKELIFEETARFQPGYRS
Description: as §1

CDK7 = molecular target: T2, CDK7 (Homo sapiens, UniProt P50613); assay: In vitro kinase assay, CDK7; type: biochemical
T2 construct: purchased Millipore 14-476
T2 sequence (P50613 whole entry): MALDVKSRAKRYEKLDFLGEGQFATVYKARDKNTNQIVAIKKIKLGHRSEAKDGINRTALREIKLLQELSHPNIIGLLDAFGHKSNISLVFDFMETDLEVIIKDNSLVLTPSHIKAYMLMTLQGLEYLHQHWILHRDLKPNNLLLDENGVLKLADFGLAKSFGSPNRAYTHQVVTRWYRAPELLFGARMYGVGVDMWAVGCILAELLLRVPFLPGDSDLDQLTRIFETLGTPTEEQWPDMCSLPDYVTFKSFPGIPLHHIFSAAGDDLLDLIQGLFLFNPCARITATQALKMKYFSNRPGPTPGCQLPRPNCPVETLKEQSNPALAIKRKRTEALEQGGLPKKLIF
T2 sequence (P51946 whole entry partner): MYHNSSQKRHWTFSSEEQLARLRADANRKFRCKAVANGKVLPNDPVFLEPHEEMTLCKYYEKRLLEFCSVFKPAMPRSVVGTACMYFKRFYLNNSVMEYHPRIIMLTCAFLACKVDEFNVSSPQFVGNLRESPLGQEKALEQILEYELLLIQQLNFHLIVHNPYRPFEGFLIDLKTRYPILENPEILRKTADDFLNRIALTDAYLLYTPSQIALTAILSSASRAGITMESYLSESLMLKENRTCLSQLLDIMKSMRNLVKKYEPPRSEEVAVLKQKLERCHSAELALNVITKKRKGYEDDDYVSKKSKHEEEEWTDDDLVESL
T2 sequence (P51948 whole entry partner): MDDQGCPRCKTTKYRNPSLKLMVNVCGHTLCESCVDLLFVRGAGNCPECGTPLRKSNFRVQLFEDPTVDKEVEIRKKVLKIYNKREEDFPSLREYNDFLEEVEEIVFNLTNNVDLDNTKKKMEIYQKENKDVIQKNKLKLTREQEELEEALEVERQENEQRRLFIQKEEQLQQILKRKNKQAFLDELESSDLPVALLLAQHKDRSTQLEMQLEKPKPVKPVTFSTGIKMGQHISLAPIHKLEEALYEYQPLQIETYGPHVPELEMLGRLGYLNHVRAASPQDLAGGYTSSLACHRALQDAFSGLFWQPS
Description: as §1

Bmal1-dLuc U2OS cells [1] = assay: U2OS cell-based circadian assay (Bmal1-dLuc luminescence rhythms); design: species or system human; details: Bmal1-dLuc U2OS cells; for Effect on circadian period: various concentrations; for Period effect compared with longdaysin: Figure S10
Description: (§2) The compound screen was done with the high-throughput circadian assay system as described previously. In brief, Bmal1-dLuc U2OS cells were suspended in the culture medium (DMEM supplemented with 10% fetal bovine serum, 0.29 mg/ml L-glutamine, 100 units/ml penicillin, and 100 µg/ml streptomycin) and plated onto 384-well white solid-bottom plates at 20 µl (2,000 cells) per well. After 2 d, 50 µl of the explant medium (DMEM supplemented with 2% B27, 10 mM HEPES, 0.38 mg/ml sodium bicarbonate, 0.29 mg/ml L-glutamine, 100 units/ml penicillin, 100 µg/ml streptomycin, 0.1 mg/ml gentamicin, and 1 mM luciferin, pH 7.2) was dispensed to each well, followed by the application of 500 nl of compounds (dissolved in DMSO; final 0.7% DMSO). The plate was covered with an optically clear film and set to luminescence monitoring system equipped with a CCD imager (ViewLux, Perkin Elmer). The luminescence was recorded every 2 h for 3–4 days. In follow-up studies, the luminescence was recorded every 100 min by using a microplate reader (Infinite M200, Tecan). The period parameter was obtained from the luminescence rhythm by curve fitting program CellulaRhythm or MultiCycle (Actimetrics), both of which gave similar results.

CKIδ = CKIδ (Homo sapiens, UniProt P48730); assay: In vitro kinase assay, CKIδ; type: biochemical; design: purchased Millipore 14-520
CKIδ, sequence (P48730 whole entry, species assumed): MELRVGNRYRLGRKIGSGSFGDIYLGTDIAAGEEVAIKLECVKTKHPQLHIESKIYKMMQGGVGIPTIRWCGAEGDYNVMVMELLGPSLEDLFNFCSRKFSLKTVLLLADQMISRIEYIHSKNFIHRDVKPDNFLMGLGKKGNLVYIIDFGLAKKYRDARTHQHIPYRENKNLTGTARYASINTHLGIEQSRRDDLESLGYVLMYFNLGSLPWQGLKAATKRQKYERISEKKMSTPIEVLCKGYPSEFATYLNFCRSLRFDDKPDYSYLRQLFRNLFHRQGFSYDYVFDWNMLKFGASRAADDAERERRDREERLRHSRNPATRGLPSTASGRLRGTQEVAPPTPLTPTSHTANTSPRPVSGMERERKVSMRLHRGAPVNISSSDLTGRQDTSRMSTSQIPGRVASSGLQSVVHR
Description: as §1

Bmal1-dLuc U2OS cells [2] = assay: Cytotoxicity in the U2OS circadian assay; type: cell-based, human
Description: as §2

cultured cells = system: cultured cells; design: method as in PMID 16983144, PMID 15767683, PMID 17876059; details: ref [14],[16]–[17]; cited from earlier work
SCN explants = system: SCN explants; design: method as in PMID 18448638; details: ref [59]; cited from earlier work

CKIα, sequence (P48729 whole entry): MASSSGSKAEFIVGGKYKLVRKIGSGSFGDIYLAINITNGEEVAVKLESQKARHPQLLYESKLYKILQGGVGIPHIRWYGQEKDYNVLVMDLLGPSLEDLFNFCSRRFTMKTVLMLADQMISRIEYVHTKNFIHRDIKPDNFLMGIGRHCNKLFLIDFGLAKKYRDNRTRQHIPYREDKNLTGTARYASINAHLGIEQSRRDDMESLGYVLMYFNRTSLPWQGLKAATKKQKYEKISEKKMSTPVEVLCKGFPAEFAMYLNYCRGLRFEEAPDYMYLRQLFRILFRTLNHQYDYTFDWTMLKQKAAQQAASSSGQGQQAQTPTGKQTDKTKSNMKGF

CC(C)n1cnc2c(NCc3ccccc3)ncnc21 [Compound 1, N-benzyl-9-isopropyl-9H-purin-6-amine]
IC50 (CKIα; ATP 5 µM, from Figure 2E): 23 µM
Potency against CKIα relative to longdaysin (times less) (CKIα; in vitro kinase assay): ~3 times
IC50 (ERK2; ATP 5 µM, from Figure 2E): 160 µM
Potency against ERK2 relative to longdaysin (times less) (ERK2; in vitro kinase assay): ~3 times
IC50 (CDK7; ATP 5 µM, from Figure 2E): 29 µM
Inhibition of CDK7 compared with longdaysin (CDK7; in vitro kinase assay): inhibited CDK7 similarly to longdaysin
Effect on circadian period (Bmal1-dLuc U2OS cells [1]): strongly lengthened the period in a dose-dependent manner
Concentration for period change, 5 h (Bmal1-dLuc U2OS cells [1]; from Figure 1B): 4.4 µM
Concentration for period change, 10 h (Bmal1-dLuc U2OS cells [1]; from Figure 1B): 17 µM
Concentration for period change, 15 h (Bmal1-dLuc U2OS cells [1]; from Figure 1B): 38 µM
IC50 (CKIδ; ATP 5 µM, from Figure 2E): 21 µM
Potency against CKIδ relative to longdaysin (times less) (CKIδ; in vitro kinase assay): ~3 times

NC(=O)c1ccc(-c2nc(-c3ccc4c(c3)OCCO4)c(-c3ccccn3)[nH]2)cc1 [Compound D4476, reference compound]
Concentration showing cytotoxicity (Bmal1-dLuc U2OS cells [2]): 71 µM
Effect on period in cultured cells (cultured cells): period lengthening
Period effect compared with longdaysin (Bmal1-dLuc U2OS cells [1]): smaller period effects

NCCNS(=O)(=O)c1ccc(Cl)c2ccncc12 [CKI-7]
Effect on period in cultured cells (cultured cells): period lengthening

N#CC(=C(/N)Sc1ccccc1N)/C(C#N)=C(/N)Sc1ccccc1N [Compound U0126]
Effect on circadian rhythms in SCN explants (SCN explants): Attenuation of the circadian rhythms

CC(=O)NCCCCCCNc1nc(NCc2cccc(C(F)(F)F)c2)c2ncn(C(C)C)c2n1 [Compound 2, N-(6-(9-isopropyl-6-(3-(trifluoromethyl)benzylamino)-9H-purin-2-ylamino)hexyl)acetamide]
Effect on circadian period (Bmal1-dLuc U2OS cells [1]): retained the period lengthening effect

COc1cc(OC)c(C=C2C(O)=Nc3ccccc32)c(OC)c1 [IC261, reference compound]
Effect on period in cultured cells (cultured cells): period lengthening
Period effect compared with longdaysin (Bmal1-dLuc U2OS cells [1]): smaller period effects

From publication PMC3001897, “High-Throughput Chemical Screen Identifies a Novel Potent Modulator of Cellular Circadian Rhythms and Reveals CKIα as a Clock Regulatory Kinase” (PLoS Biology, 2010)
